Results taken from US20090123501A1, “INHIBITION OF THE SH2-DOMAIN CONTAINING PROTEIN TYR-PHOSPHATASE, SHP-1, TO ENHANCE VACCINES” (Baylor College of Medicine, priority 2007, published 2009).
Values belong to the molecule of their own block, whether it stands above or below them.

Legend:
H-2K^b [1] = target: T1, H-2K^b (Mus musculus, UniProt P01901); assay: MHC class I surface stabilization assay on RMA-S cells, H-2Kb; assay type: binding; settings: RMA-S cells pulsed with peptide overnight, flow cytometry
T1 construct: surface stabilization assay using the TAP1 deficient cell line RMA-S; endogenous in cells; host or cells: RMA-S
T1 sequence (P01901 22-369): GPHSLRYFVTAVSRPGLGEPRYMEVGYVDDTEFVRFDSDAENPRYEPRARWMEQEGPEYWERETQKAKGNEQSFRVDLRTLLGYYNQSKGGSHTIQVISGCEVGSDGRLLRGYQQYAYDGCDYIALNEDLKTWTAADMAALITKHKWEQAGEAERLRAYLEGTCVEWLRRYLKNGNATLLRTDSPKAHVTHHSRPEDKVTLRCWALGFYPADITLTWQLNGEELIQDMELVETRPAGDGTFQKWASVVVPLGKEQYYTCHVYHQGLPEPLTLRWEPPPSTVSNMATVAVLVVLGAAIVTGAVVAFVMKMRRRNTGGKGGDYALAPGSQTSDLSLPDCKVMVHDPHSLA
T1 sequence (P01887 21-119 partner): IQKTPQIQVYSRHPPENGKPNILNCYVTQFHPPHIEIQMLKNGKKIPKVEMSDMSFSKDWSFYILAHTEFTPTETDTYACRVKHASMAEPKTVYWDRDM
Description: (§1) 10^6 RMA-S cells were incubated overnight at 37° C. with each of the five predicted at the concentrations indicated. Cells were stained with antibodies for H-2K^b (Y-3; ATCC-HB176) or H-2D^b (28-14-8S; ATCC-HB27) followed by a goat anti-mouse-FITC second step and MHC class I surface expression was analyzed by flow cytometry. Specific MFI is the mean fluorescent intensity of the sample-mean fluorescent intensity of goat anti-mouse-FITC second step alone. Error bars represent the standard deviation of triplicate measurements.
(§2) The binding affinity of the five predicted peptides was tested. In a surface stabilization assay using the TAP1 deficient cell line RMA-S. RMA-S cells were pulsed with peptide, at the indicated concentrations, and incubated overnight. Cells were stained with antibodies for H-2K^b (Y-3; ATCC-HB176) or H-2D^b (28-14-8S; ATCC-HB27) followed by a fluorescent-labeled secondary antibody and MHC class I surface expression was analyzed by flow cytometry.

NFκB signaling = assay: NFκB-dependent secreted alkaline phosphatase reporter in RAW cells; assay type: cell-based, murine; settings: transient transfection, IFNγ or LPS stimulation
Description: (§3) Function of the mutant and wt SHP-1 constructs was tested in RAW cells by transient transfection of SHP-1 vectors along with a reporter construct expressing a secreted alkaline phosphatase driven by either an NFκB or AP-1 dependent promoter. NFκB and AP-1 are major transcription factors stimulated by toll-like receptor (TLR) and cytokine signaling in immune system cells, and represent likely pathways of SHP-1 inhibition on cellular activation. Cells were transfected with the appropriate construct, reporter and then stimulated with interferon-γ (IFNγ) or bacterial lipopolysaccharide (LPS) as ligands for cytokine and TLR receptors respectively.

AP-1 signaling = assay: AP-1-dependent secreted alkaline phosphatase reporter in RAW cells; assay type: cell-based, murine; settings: transient transfection, IFNγ or LPS stimulation
Description: as §3

H-2D^b = target: T2, H-2D^b (mouse, UniProt P01887 21-119; P01899 25-309); assay: RMA-S surface stabilization assay, flow cytometry of MHC class I surface expression
T2 construct: whole, on cells;extracellular; MHC class I on RMA-S cells, detected with antibody 28-14-8S (ATCC-HB27) in a surface stabilization assay; also called MHC class 1 molecule H-2D^b
T2 sequence (MHC heavy, looked up): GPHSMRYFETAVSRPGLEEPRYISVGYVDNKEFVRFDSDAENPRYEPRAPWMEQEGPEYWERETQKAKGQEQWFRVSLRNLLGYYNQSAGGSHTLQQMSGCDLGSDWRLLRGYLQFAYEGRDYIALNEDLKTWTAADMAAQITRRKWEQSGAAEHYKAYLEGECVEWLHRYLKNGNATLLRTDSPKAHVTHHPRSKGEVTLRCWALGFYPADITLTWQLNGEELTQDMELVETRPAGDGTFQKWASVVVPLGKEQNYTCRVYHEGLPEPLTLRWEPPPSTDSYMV
T2 sequence (b2m, looked up): T1 sequence (P01887 21-119 partner)
Description: as §1, with “10⁶” for “10^6”, “measurements. This is representative of 3 separate studies.” for “measurements.”
as §2, with “cytometry. […] STEAP₈₄₋₉₁ and STEAP₁₈₆₋₁₉₂ bound with an affinity near that of OVA₂₅₈₋₂₆₅, a well characterized strong binding H-2K^b epitope from chicken ovalbumin. […]” for “cytometry.”

H-2K^b [2] = target: T3, H-2K^b (mouse, UniProt P01887 21-119; P01901 22-305, limits assumed); assay: RMA-S surface stabilization assay, flow cytometry with antibody Y-3; reference peptide
T3 construct: whole, on cells;extracellular; MHC class I on RMA-S cells, detected with antibody Y-3 (ATCC-HB176) in a surface stabilization assay; also called MHC class 1 molecule H-2K^b
T3 sequence (MHC heavy, looked up): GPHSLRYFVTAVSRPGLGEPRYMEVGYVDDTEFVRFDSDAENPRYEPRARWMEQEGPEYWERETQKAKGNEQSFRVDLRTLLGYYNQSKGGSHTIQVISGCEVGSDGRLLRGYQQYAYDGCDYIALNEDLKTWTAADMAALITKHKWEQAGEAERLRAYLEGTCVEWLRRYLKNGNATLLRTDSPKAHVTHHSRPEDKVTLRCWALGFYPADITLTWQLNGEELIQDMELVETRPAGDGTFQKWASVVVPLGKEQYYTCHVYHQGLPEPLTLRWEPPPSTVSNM
T3 sequence (b2m, looked up): T1 sequence (P01887 21-119 partner)
Description: In Table 1, OVA Kb binding peptide […] was used as control for a known good binder.
as §1, with “10⁶” for “10^6”, “measurements. This is representative of 3 separate studies.” for “measurements.”
as §2, with “cytometry. […] STEAP₈₄₋₉₁ and STEAP₁₈₆₋₁₉₂ bound with an affinity near that of OVA₂₅₈₋₂₆₅, a well characterized strong binding H-2K^b epitope from chicken ovalbumin. […]” for “cytometry.”

Molecule: LTFLYTLL [STEAP84-91]
relative binding affinity to H-2Kb (MHC class I surface expression) (H-2K^b [1]): bound with an affinity near that of OVA258-265

Molecule: RSYRYKLL [STEAP186-192]
relative binding affinity to H-2Kb (MHC class I surface expression) (H-2K^b [1]): bound with an affinity near that of OVA258-265

Molecule: dn-SHP-1: phosphatase dead dominant negative SHP-1 C453S mutant construct, HA-tagged (SEQ ID NO:8)
NFκB signaling (NFκB signaling): enhanced both NFκB and AP-1 signaling
AP-1 signaling (AP-1 signaling): enhanced both NFκB and AP-1 signaling

binding result (H-2D^b): no binding
B1: STEAP262-270 (peptide)
peptide: LLLGTVHAL
notes: also called LLLGTVHAL

binding result (H-2K^b [2]): binds
B2: OVA258-265 (peptide)
peptide: SIINFEKL
notes: also called OVA peptide
